Measured values reported in US20220402869A1, “TRANSCRIPTIONAL ENHANCED ASSOCIATE DOMAIN (TEAD) TRANSCRIPTION FACTOR INHIBITORS AND USES THEREOF” (Dana-Farber Cancer Institute, Inc., priority 2018, published 2022).

Test system: TEAD transcriptional activity
Experiment: Inhibition of TEAD-driven transcription (8×GTIIC-luciferase reporter assay)
Assay type: cell-based
Conditions: 40 μM at 24 hour treatment
Experimental: The compounds were tested for their ability to inhibit TEAD-driven transcription.
8×GTIIC-luciferase plasmid, containing 8 TEAD binding sites (ACATTCCA), was obtained from Addgene (Addgene #34615). MDA-MB-231 cells were transfected with 8×GTIIC-luciferase and stable clone was obtained using neomycin selection. The TEAD transcriptional activity was monitored by assessing the luciferase activity using luciferase assay system (Promega). Each data point represents mean±standard deviation.

SMILES	inhibition at 40 µM [%]
O=C(CCl)N1CC(c2cccc(C(F)(F)F)c2)c2ccccc21 (stereo not shown) [Compound I-35, 2-chloro-1-(3-(3-(trifluoromethyl)phenyl)indolin-1-yl)ethan-1-one]	70
C=CC(=O)N1CCC[C@@H](Oc2cccc(C(F)(F)F)c2)C1 [Compound I-21]	70
O=C(CCl)N1CCC[C@@H](Nc2cccc(C(F)(F)F)c2)C1 [Compound I-2, (R)-2-chloro-1-(3-((3-(trifluoromethyl)phenyl)amino)piperidin-1-yl)ethan-1-one]	50
C=CC(=O)N1CC[C@H](Nc2cccc(C(F)(F)F)c2N)C1 [Compound I-65, (S)-1-(3-((2-amino-3-(trifluoromethyl)phenyl)amino)pyrrolidin-1-yl)prop-2-en-1-one]	90
C=CC(=O)N1CCC(Nc2cccc(C(F)(F)F)c2)C1 (stereo not shown) [Compound I-11, 1-(3-((3-(trifluoromethyl)phenyl)amino)pyrrolidin-1-yl)prop-2-en-1-one]	90
C=CC(=O)N1CC[C@H](Nc2cccc(N3CCN(C)CC3)c2)C1 [Compound I-49, (S)-1-(3-((3-(4-methylpiperazin-1-yl)phenyl)amino)pyrrolidin-1-yl)prop-2-en-1-one]	50
O=C(CCl)N1CCC[C@@H](Oc2cccc(C(F)(F)F)c2)C1 [Compound I-20, (R)-2-chloro-1-(3-(3-(trifluoromethyl)phenoxy)piperidin-1-yl)ethan-1-one]	70
C=CC(=O)N1CCC[C@H](Nc2cccc(C(F)(F)F)c2)C1 [Compound I-15, (S)-1-(3-((3-(trifluoromethyl)phenyl)amino)piperidin-1-yl)prop-2-en-1-one]	70
C=CC(=O)N1C[C@@H](O)[C@H](Nc2cccc(C(F)(F)F)c2)C1 [Compound I-62, 1-((3R,4R)-3-hydroxy-4-((3-(trifluoromethyl)phenyl)amino)pyrrolidin-1-yl)prop-2-en-1-one]	70
O=C(CCl)Nc1ccccc1Nc1cccc(C(F)(F)F)c1 [Compound I-31, 2-chloro-N-(2-((3-(trifluoromethyl)phenyl)amino)phenyl)acetamide]	90
O=C(CCl)N1CCC[C@H](Nc2cccc(C(F)(F)F)c2)C1 [Compound I-14, (S)-2-chloro-1-(3-((3-(trifluoromethyl)phenyl)amino)piperidin-1-yl)ethan-1-one]	70
C=CC(=O)N1CC[C@H](Oc2cccc(C(F)(F)F)c2)C1 [Compound I-58, (S)-1-(3-(3-(trifluoromethyl)phenoxy)pyrrolidin-1-yl)prop-2-en-1-one]	70
C=CC(=O)N1CC[C@H](Nc2cccc(C(F)(F)F)c2C)C1 [Compound I-57, (S)-1-(3-((2-methyl-3-(trifluoromethyl)phenyl)amino)pyrrolidin-1-yl)prop-2-en-1-one]	70
C#Cc1cc(N[C@@H]2CCCN(C(=O)CCl)C2)cc(C(F)(F)F)c1 [Compound I-18]	50
CN(C)C/C=C/C(=O)N1CC[C@H](Nc2cccc(C(F)(F)F)c2)C1 [Compound I-47, (S,E)-4-(dimethylamino)-1-(3-((3-(trifluoromethyl)phenyl)amino)pyrrolidin-1-yl)but-2-en-1-one]	50
CCC(=O)N1CCC(Nc2cccc(C(F)(F)F)c2)C1 (stereo not shown) [Compound I-27, 1-(3-((3-(trifluoromethyl)phenyl)amino)pyrrolidin-1-yl)propan-1-one]	70
C=CC(=O)N1CC[C@H](Nc2cc(C(F)(F)F)ccc2OC)C1 [Compound I-56, (S)-1-(3-((2-methoxy-5-(trifluoromethyl)phenyl)amino)pyrrolidin-1-yl)prop-2-en-1-one]	50
O=C(CCl)N1CCC(Nc2cccc(C(F)(F)F)c2)C1 (stereo not shown) [Compound I-10, 2-chloro-1-(3-((3-(trifluoromethyl)phenyl)amino)pyrrolidin-1-yl)ethan-1-one]	90
O=C(CCl)N1CCCC(Nc2cccc(C(F)(F)F)c2)C1 (stereo not shown) [Compound I-19, 2-chloro-1-(3-((3-(trifluoromethyl)phenyl)amino)piperidin-1-yl)ethan-1-one]	50
C=CC(=O)N1CCC[C@@H](Nc2cccc(C(F)(F)F)c2)C1 [Compound I-1, (R)-1-(3-((3-(trifluoromethyl)phenyl)amino)piperidin-1-yl)prop-2-en-1-one]	50
C=CC(=O)N1CC[C@H](Nc2cncc(C(F)(F)F)c2)C1 [Compound I-61, (S)-1-(3-((5-(trifluoromethyl)pyridin-3-yl)amino)pyrrolidin-1-yl)prop-2-en-1-one]	50
C=CC(=O)N1CC[C@H](Nc2cc(C(F)(F)F)cc(C(F)(F)F)c2)C1 [Compound I-50, (S)-1-(3-((3,5-bis(trifluoromethyl)phenyl)amino)pyrrolidin-1-yl)prop-2-en-1-one]	90
C=CC(=O)N1CC[C@H](Nc2cc(C(F)(F)F)ccc2Cl)C1 [Compound I-51, (S)-1-(3-((2-chloro-5-(trifluoromethyl)phenyl)amino)pyrrolidin-1-yl)prop-2-en-1-one]	90
C=CC(=O)N1CC[C@H](Nc2cc(Cl)cc(C(F)(F)F)c2)C1 [Compound I-52, (S)-1-(3-((3-chloro-5-(trifluoromethyl)phenyl)amino)pyrrolidin-1-yl)prop-2-en-1-one]	70
C=CC(=O)N1CC[C@H](N(C)c2cccc(C(F)(F)F)c2)C1 [Compound I-48, (S)-1-(3-(methyl(3-(trifluoromethyl)phenyl)amino)pyrrolidin-1-yl)prop-2-en-1-one]	50
